# From publication PMC5966403 (2018)
# Tests used:
# [1] = test system: TSL2 (RNA, hairpin) AUUCCUUAAAUUAAGGAGU; experiment: TO-PRO-1 fluorescence displacement; conditions: Na+ (185 mM NaCl, 8 mM Na2HPO4); pH 7, 0.1 mM EDTA, 40 μg/mL BSA; 0.5 μM RNA; TO-PRO-1 (1 μM) displaced
# [2] = test system: TSL2 (RNA, hairpin) AUUCCUUAAAUUAAGGAGU; experiment: RiboGreen fluorescence displacement; conditions: Na+ (185 mM NaCl, 8 mM Na2HPO4); RiboGreen (300 nM) displaced
# [3] = test system: TSL2 (RNA, hairpin) AUUCCUUAAAUUAAGGAGU; experiment: NMR (TOCSY) chemical-shift perturbation; conditions: 40–50 μM RNA, 20 equivalents PK4C9; shifts at U2 and U19
EC50 [1] [µM],binding [2],binding [3],Structure (SMILES)
4.5,,,N=C(N)c1ccc(Nc2ccc(-c3cc4ccc(C(=N)N)cc4[nH]3)cc2)cc1
16,yes,yes,O=C(c1cnc(C(=O)c2c[nH]c3cc(O)ccc23)[nH]1)c1c[nH]c2ccccc12
85.9,,,O=C(c1cnc(C(=O)c2c[nH]c3ccccc23)[nH]1)c1c[nH]c2ccccc12
